{"source": "patent US10213433B2", "about": "(AbbVie Inc., priority 2010, dated 2019)", "data": [{"molecular_target": "Bcl-2 protein (Homo sapiens (Human), UniProt P10415)", "sequence (P10415 whole entry)": "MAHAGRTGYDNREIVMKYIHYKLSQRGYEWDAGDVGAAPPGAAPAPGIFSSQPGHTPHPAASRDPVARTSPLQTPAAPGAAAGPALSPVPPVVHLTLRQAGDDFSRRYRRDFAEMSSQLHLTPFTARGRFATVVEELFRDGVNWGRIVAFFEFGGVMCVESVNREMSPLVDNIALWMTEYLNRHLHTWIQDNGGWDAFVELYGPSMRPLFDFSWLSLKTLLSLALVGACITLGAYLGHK", "assay": "Bcl-2 binding TR-FRET (Time-Resolved Fluorescence-Resonance-Energy-Transfer) assay", "settings": "inhibition constant for binding to Bcl-2 protein", "excerpt": "The smaller the Ki value, the greater is the binding affinity.", "units": {"Ki": "pM"}, "values": [{"molecule": "CC(C)N1CCC2(CCC(c3ccc(Cl)cc3)=C(CN3CCN(c4ccc(C(=O)NS(=O)(=O)c5cnc(OCC6CCOCC6)c(Cl)c5)c(Oc5cnc6[nH]ccc6c5)c4)CC3)C2)CC1", "note": "[Compound 268, 4-(4-{[9-(4-chlorophenyl)-3-isopropyl-3-azaspiro[5.5]undec-8-en-8-yl]methyl}piperazin-1-yl)-N-{[5-chloro-6-(tetrahydro-2H-pyran-4-ylmethoxy)pyridin-3-yl]sulfonyl}-2-(1H-pyrrolo[2,3-b]pyridin-5-yloxy)benzamide]", "Ki": "< 10"}, {"molecule": "CN(C)CC(=O)N1CCC(F)(COc2ncc(S(=O)(=O)NC(=O)c3ccc(N4CCN(CC5=C(c6ccc(Cl)cc6)CC(C)(C)CC5)CC4)cc3Oc3cnc4[nH]ccc4c3)cc2Cl)CC1", "note": "[Compound 270, N-[(5-chloro-6-{[1-(N,N-dimethylglycyl)-4-fluoropiperidin-4-yl]methoxy}pyridin-3-yl)sulfonyl]-4-(4-{[2-(4-chlorophenyl)-4,4-dimethylcyclohex-1-en-1-yl]methyl}piperazin-1-yl)-2-(1H-pyrrolo[2,3-b]pyridin-5-yloxy)benzamide]", "Ki": "< 10"}, {"molecule": "CC1(C)CCC(CN2CCN(c3ccc(C(=O)NS(=O)(=O)c4ccc(OCCOC5CCOC5)c([N+](=O)[O-])c4)c(Oc4cnc5[nH]ccc5c4)c3)CC2)=C(c2ccc(Cl)cc2)C1", "note": "(stereo not shown) [Compound 275, 4-(4-{[2-(4-chlorophenyl)-4,4-dimethylcyclohex-1-en-1-yl]methyl}piperazin-1-yl)-N-({3-nitro-4-[2-(tetrahydrofuran-3-yloxy)ethoxy]phenyl}sulfonyl)-2-(1H-pyrrolo[2,3-b]pyridin-5-yloxy)benzamide]", "Ki": "< 10"}, {"molecule": "CC1(C)CCC(CN2CCN(c3ccc(C(=O)NS(=O)(=O)c4cnc(OCC5(F)CCN(C(CF)CF)CC5)c(Cl)c4)c(Oc4cnc5[nH]ccc5c4)c3)CC2)=C(c2ccc(Cl)cc2)C1", "note": "[Compound 282, N-[(5-chloro-6-{[1-(1,3-difluoropropan-2-yl)-4-fluoropiperidin-4-yl]methoxy}pyridin-3-yl)sulfonyl]-4-(4-{[2-(4-chlorophenyl)-4,4-dimethylcyclohex-1-en-1-yl]methyl}piperazin-1-yl)-2-(1H-pyrrolo[2,3-b]pyridin-5-yloxy)benzamide]", "Ki": "< 10"}, {"molecule": "CN1CCC(F)(COc2ccc(S(=O)(=O)NC(=O)c3ccc(N4CCN(CC5=C(c6ccc(Cl)cc6)CC(C)(C)CC5)CC4)cc3Oc3cnc4[nH]ccc4c3)cc2Cl)CC1", "note": "[Compound 283, N-({3-chloro-4-[(4-fluoro-1-methylpiperidin-4-yl)methoxy]phenyl}sulfonyl)-4-(4-{[2-(4-chlorophenyl)-4,4-dimethylcyclohex-1-en-1-yl]methyl}piperazin-1-yl)-2-(1H-pyrrolo[2,3-b]pyridin-5-yloxy)benzamide]", "Ki": "< 10"}, {"molecule": "CC1(C)CCC(CN2CCN(c3ccc(C(=O)NS(=O)(=O)c4cnc(OCC5(F)CCN(CC(F)F)CC5)c(Cl)c4)c(Oc4cnc5[nH]ccc5c4)c3)CC2)=C(c2ccc(Cl)cc2)C1", "note": "[Compound 285, N-[(5-chloro-6-{[1-(2,2-difluoroethyl)-4-fluoropiperidin-4-yl]methoxy}pyridin-3-yl)sulfonyl]-4-(4-{[2-(4-chlorophenyl)-4,4-dimethylcyclohex-1-en-1-yl]methyl}piperazin-1-yl)-2-(1H-pyrrolo[2,3-b]pyridin-5-yloxy)benzamide]", "Ki": "< 10"}, {"molecule": "CC1CN(c2ccc(C(=O)NS(=O)(=O)c3ccc(NCC4CCOCC4)c([N+](=O)[O-])c3)c(Oc3cnc4[nH]ccc4c3)c2)CCN1CC1=C(c2ccc(Cl)cc2)CC(C)(C)CC1", "note": "(stereo not shown) [Compound 290, 4-(4-{[2-(4-chlorophenyl)-4,4-dimethylcyclohex-1-en-1-yl]methyl}-3-methylpiperazin-1-yl)-N-({3-nitro-4-[(tetrahydro-2H-pyran-4-ylmethyl)amino]phenyl}sulfonyl)-2-(1H-pyrrolo[2,3-b]pyridin-5-yloxy)benzamide]", "Ki": "< 10"}, {"molecule": "CC1(C)CCC(CN2CCN(c3ccc(C(=O)NS(=O)(=O)c4ccc(NCCCNC5CC5)c([N+](=O)[O-])c4)c(Oc4cnc5[nH]ccc5c4)c3)CC2)=C(c2ccc(Cl)cc2)C1", "note": "[Compound 291, 4-(4-{[2-(4-chlorophenyl)-4,4-dimethylcyclohex-1-en-1-yl]methyl}piperazin-1-yl)-N-[(4-{[3-(cyclopropylamino)propyl]amino}-3-nitrophenyl)sulfonyl]-2-(1H-pyrrolo[2,3-b]pyridin-5-yloxy)benzamide]", "Ki": "< 10"}, {"molecule": "CN(C)CC(=O)N1CCC(COc2ccc(S(=O)(=O)NC(=O)c3ccc(N4CCN(CC5=C(c6ccc(Cl)cc6)CC(C)(C)CC5)CC4)cc3Oc3cnc4[nH]ccc4c3)cc2Cl)CC1", "note": "[Compound 295, N-[(3-chloro-4-{[1-(N,N-dimethylglycyl)piperidin-4-yl]methoxy}phenyl)sulfonyl]-4-(4-{[2-(4-chlorophenyl)-4,4-dimethylcyclohex-1-en-1-yl]methyl}piperazin-1-yl)-2-(1H-pyrrolo[2,3-b]pyridin-5-yloxy)benzamide]", "Ki": "< 10"}, {"molecule": "COC(=O)N1CCOC(CNc2ccc(S(=O)(=O)NC(=O)c3ccc(N4CCN(CC5=C(c6ccc(Cl)cc6)CC(C)(C)CC5)CC4)cc3Oc3cnc4[nH]ccc4c3)cc2[N+](=O)[O-])C1", "note": "(stereo not shown) [Compound 317, methyl 2-{[(4-{[4-(4-{[2-(4-chlorophenyl)-4,4-dimethylcyclohex-1-en-1-yl]methyl}piperazin-1-yl)-2-(1H-pyrrolo[2,3-b]pyridin-5-yloxy)benzoyl]sulfamoyl}-2-nitrophenyl)amino]methyl}morpholine-4-carboxylate]", "Ki": "< 10"}, {"molecule": "CCN(C)C(=O)N1CCOC(CNc2ccc(S(=O)(=O)NC(=O)c3ccc(N4CCN(CC5=C(c6ccc(Cl)cc6)CC(C)(C)CC5)CC4)cc3Oc3cnc4[nH]ccc4c3)cc2[N+](=O)[O-])C1", "note": "(stereo not shown) [Compound 318, 2-{[(4-{[4-(4-{[2-(4-chlorophenyl)-4,4-dimethylcyclohex-1-en-1-yl]methyl}piperazin-1-yl)-2-(1H-pyrrolo[2,3-b]pyridin-5-yloxy)benzoyl]sulfamoyl}-2-nitrophenyl)amino]methyl}-N-ethyl-N-methylmorpholine-4-carboxamide]", "Ki": "< 10"}, {"molecule": "CC1(C)CCC(CN2CCN(c3ccc(C(=O)NS(=O)(=O)c4ccc(NCC5CN(S(C)(=O)=O)CCO5)c([N+](=O)[O-])c4)c(Oc4cnc5[nH]ccc5c4)c3)CC2)=C(c2ccc(Cl)cc2)C1", "note": "(stereo not shown) [Compound 319, 4-(4-{[2-(4-chlorophenyl)-4,4-dimethylcyclohex-1-en-1-yl]methyl}piperazin-1-yl)-N-{[4-({[4-(methylsulfonyl)morpholin-2-yl]methyl}amino)-3-nitrophenyl]sulfonyl}-2-(1H-pyrrolo[2,3-b]pyridin-5-yloxy)benzamide]", "Ki": "< 10"}, {"molecule": "CC1(C)CCC(CN2CCN(c3ccc(C(=O)NS(=O)(=O)c4ccc(NCCCN(C5CCC5)C5CC5)c([N+](=O)[O-])c4)c(Oc4cnc5[nH]ccc5c4)c3)CC2)=C(c2ccc(Cl)cc2)C1", "note": "[Compound 320, 4-(4-{[2-(4-chlorophenyl)-4,4-dimethylcyclohex-1-en-1-yl]methyl}piperazin-1-yl)-N-{[4-({3-[cyclobutyl(cyclopropyl)amino]propyl}amino)-3-nitrophenyl]sulfonyl}-2-(1H-pyrrolo[2,3-b]pyridin-5-yloxy)benzamide]", "Ki": "< 10"}, {"molecule": "O=C(NS(=O)(=O)c1ccc(NCC2CCOCC2)c([N+](=O)[O-])c1)c1ccc(N2CCN(CC3=C(c4ccc(Cl)cc4)CCC(F)(F)C3)CC2)cc1Oc1cnc2[nH]ccc2c1", "note": "[Compound 321, 4-(4-{[2-(4-chlorophenyl)-5,5-difluorocyclohex-1-en-1-yl]methyl}piperazin-1-yl)-N-({3-nitro-4-[(tetrahydro-2H-pyran-4-ylmethyl)amino]phenyl}sulfonyl)-2-(1H-pyrrolo[2,3-b]pyridin-5-yloxy)benzamide]", "Ki": "< 10"}, {"molecule": "O=C(NS(=O)(=O)c1ccc(OCC2(F)CCOCC2)c(Cl)c1)c1ccc(N2CCN(CC3=C(c4ccc(Cl)cc4)CCC4(CCN(C5COC5)CC4)C3)CC2)cc1Oc1cnc2[nH]ccc2c1", "note": "[Compound 325, N-({3-chloro-4-[(4-fluorotetrahydro-2H-pyran-4-yl)methoxy]phenyl}sulfonyl)-4-(4-{[9-(4-chlorophenyl)-3-(oxetan-3-yl)-3-azaspiro[5.5]undec-8-en-8-yl]methyl}piperazin-1-yl)-2-(1H-pyrrolo[2,3-b]pyridin-5-yloxy)benzamide]", "Ki": "< 10"}, {"molecule": "CC1(C)CCC(CN2CCN(c3ccc(C(=O)NS(=O)(=O)c4ccc(NC[C@@H]5CN(C6CC6)CCO5)c([N+](=O)[O-])c4)c(Oc4cnc5[nH]ccc5c4)c3)CC2)=C(c2ccc(Cl)cc2)C1", "note": "[Compound 326, 4-(4-{[2-(4-chlorophenyl)-4,4-dimethylcyclohex-1-en-1-yl]methyl}piperazin-1-yl)-N-{[4-({[(2R)-4-cyclopropylmorpholin-2-yl]methyl}amino)-3-nitrophenyl]sulfonyl}-2-(1H-pyrrolo[2,3-b]pyridin-5-yloxy)benzamide]", "Ki": "< 10"}, {"molecule": "CC1(C)CCC(CN2CCN(c3ccc(C(=O)NS(=O)(=O)c4ccc(NC[C@H]5CN(C6CC6)CCO5)c([N+](=O)[O-])c4)c(Oc4cnc5[nH]ccc5c4)c3)CC2)=C(c2ccc(Cl)cc2)C1", "note": "[Compound 327, 4-(4-{[2-(4-chlorophenyl)-4,4-dimethylcyclohex-1-en-1-yl]methyl}piperazin-1-yl)-N-{[4-({[(2S)-4-cyclopropylmorpholin-2-yl]methyl}amino)-3-nitrophenyl]sulfonyl}-2-(1H-pyrrolo[2,3-b]pyridin-5-yloxy)benzamide]", "Ki": "< 10"}, {"molecule": "O=C(NS(=O)(=O)c1ccc(NCC2CCOCC2)c([N+](=O)[O-])c1)c1ccc(N2CCN(CC3=C(c4ccc(Cl)cc4)CC4(CC3)CC4)CC2)cc1Oc1cnc2[nH]ccc2c1", "note": "[Compound 328, 4-(4-{[5-(4-chlorophenyl)spiro[2.5]oct-5-en-6-yl]methyl}piperazin-1-yl)-N-({3-nitro-4-[(tetrahydro-2H-pyran-4-ylmethyl)amino]phenyl}sulfonyl)-2-(1H-pyrrolo[2,3-b]pyridin-5-yloxy)benzamide]", "Ki": "< 10"}, {"molecule": "O=C(NS(=O)(=O)c1ccc(NCC2CN(C3CC3)CCO2)c([N+](=O)[O-])c1)c1ccc(N2CCN(CC3=C(c4ccc(Cl)cc4)CC4(CC3)CC4)CC2)cc1Oc1cnc2[nH]ccc2c1", "note": "(stereo not shown) [Compound 330, 4-(4-{[5-(4-chlorophenyl)spiro[2.5]oct-5-en-6-yl]methyl}piperazin-1-yl)-N-[(4-{[(4-cyclopropylmorpholin-2-yl)methyl]amino}-3-nitrophenyl)sulfonyl]-2-(1H-pyrrolo[2,3-b]pyridin-5-yloxy)benzamide]", "Ki": "< 10"}]}]}
